Test [1] deals with HFpEF patients. Conditions: JAMA 2020; cited from earlier work.
Test [2] relates to HFpEF patients. The settings on record: JAMA 2013; cited from earlier work.
The next test concerns the target T1, apo-sGC (Homo sapiens, UniProt Q02108+Q02153).
T1 construct: P-WBC is isolated after a 800g centrifugation and treated with sGCs or sGCa; endogenous in cells; host or cells: fresh human platelet-enriched white-blood-cell fraction (P-WBC) from healthy volunteers
T1 sequence (Q02153 1-619): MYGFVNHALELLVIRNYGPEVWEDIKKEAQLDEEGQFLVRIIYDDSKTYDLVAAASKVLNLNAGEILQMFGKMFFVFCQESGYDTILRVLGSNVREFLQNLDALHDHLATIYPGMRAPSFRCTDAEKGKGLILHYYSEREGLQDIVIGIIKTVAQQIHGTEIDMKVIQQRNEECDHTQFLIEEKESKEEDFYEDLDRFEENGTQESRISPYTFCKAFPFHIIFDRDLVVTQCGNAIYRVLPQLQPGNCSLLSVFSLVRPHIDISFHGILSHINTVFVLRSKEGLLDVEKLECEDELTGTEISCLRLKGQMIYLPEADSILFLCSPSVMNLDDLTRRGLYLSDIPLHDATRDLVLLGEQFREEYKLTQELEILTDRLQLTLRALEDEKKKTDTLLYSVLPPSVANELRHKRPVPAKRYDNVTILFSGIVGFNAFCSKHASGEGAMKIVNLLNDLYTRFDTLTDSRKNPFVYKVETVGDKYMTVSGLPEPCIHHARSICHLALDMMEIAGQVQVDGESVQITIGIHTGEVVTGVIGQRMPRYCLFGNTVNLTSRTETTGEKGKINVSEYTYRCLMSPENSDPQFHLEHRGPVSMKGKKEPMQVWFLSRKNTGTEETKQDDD
T1 sequence (Q02108 1-690): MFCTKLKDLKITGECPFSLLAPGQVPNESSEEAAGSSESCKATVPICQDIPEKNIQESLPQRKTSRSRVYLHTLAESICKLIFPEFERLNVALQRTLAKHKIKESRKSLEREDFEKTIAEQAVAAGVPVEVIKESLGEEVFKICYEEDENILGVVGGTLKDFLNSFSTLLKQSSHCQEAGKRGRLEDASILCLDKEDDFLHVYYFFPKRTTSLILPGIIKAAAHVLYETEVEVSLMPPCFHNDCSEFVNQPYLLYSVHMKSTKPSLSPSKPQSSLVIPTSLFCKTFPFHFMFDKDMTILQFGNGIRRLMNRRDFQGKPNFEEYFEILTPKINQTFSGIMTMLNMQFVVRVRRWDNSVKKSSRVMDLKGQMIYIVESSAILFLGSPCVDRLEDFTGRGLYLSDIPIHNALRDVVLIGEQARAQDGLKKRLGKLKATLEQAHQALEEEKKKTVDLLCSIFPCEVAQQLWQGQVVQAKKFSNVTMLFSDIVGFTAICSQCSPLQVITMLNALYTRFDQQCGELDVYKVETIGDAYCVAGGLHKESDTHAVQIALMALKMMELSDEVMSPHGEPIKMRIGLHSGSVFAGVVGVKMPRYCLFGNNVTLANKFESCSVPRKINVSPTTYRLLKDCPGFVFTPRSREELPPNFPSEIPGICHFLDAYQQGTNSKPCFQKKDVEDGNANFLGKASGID
As to the kind of experiment: pVASP/VASP concentration response in fresh P-WBC, sGC activator. The class given is cell-based. On the procedure:
(§1) Human blood was collected from healthy volunteers after obtaining informed consent according to the Declaration of Helsinki. An ethical approval was granted by the FHML Research Ethics Committee of Maastricht University (FHML-REC/2022/055). Whole blood (WB) was collected by venipuncture in ACD-A tubes (sodium citrate: 22.0 g/L, dextrose 24.5 g/L, citric acid: 8.0 g/L). Centrifugations in various speeds (200 g, 400g, 600g, 800g) were performed for 10 minutes in 18 degrees Celsius (acceleration 1, deceleration 0). Plasma was collected and P-WBC was carefully isolated (500 μl). Cell counting was performed with the automated haematology analyzer Sysmex XP-300. Subsequently, P-WBC was diluted with the same volume of JNL-buffer (130 mM NaCl, 3 mM KCl, 9 mM NaHCO3, 0.81 mM KH2PO4, 0.9 mM MgCI2, 10 mM sodium citrate, 6 mM dextrose, 10 mM Tris base, 2 mM HEPES) pH 7.4. Thereafter, 20 μl of diluted P-WBC were further diluted 1:5 with JNL-buffer for the cell treatments. Cell suspensions were treated with BAY 41-2272 (30 μM) and BAY 58-2667 (10 μM) for 10 minutes at 37° C., and with riociguat and runcaciguat for 15 minutes; in some cases with 10 minutes pretreatment with IBMX. Samples were centrifuged for 10 minutes at 750 g. […]
(§2) All data are expressed as mean±standard error of mean (SEM) of at least three independent experiments. […]

In test [3] the test system is HFpEF patients. Conditions: JAMA 2020; cited from earlier work. The source holds these as a separate data set.
In the next test the target is T2, sGC (Homo sapiens, UniProt Q02108+Q02153).
T2 construct: P-WBC is isolated after a 800g centrifugation and treated with sGCs or sGCa; endogenous in cells; host or cells: fresh human platelet-enriched white-blood-cell fraction (P-WBC) from healthy volunteers
T2 sequence (Q02153 1-619): T1 sequence (Q02153 1-619)
T2 sequence (Q02108 1-690): T1 sequence (Q02108 1-690)
As to the kind of experiment: pVASP/VASP concentration response in fresh P-WBC, sGC stimulator. The class given is cell-based. As to the method:
as §1, §2

The mark [4] stands for this setting: in the presence of 500 μM IBMX (FIG. 14D).

Structures are written as SMILES. Where two headings read alike, the source gives them in different places.

For `OC(CNc1nc(-c2cc(-c3ccon3)n(Cc3ccccc3F)n2)ncc1F)(C(F)(F)F)C(F)(F)F` [Praliciguat], in the test with HFpEF patients [1], the trial outcome is “failed”.
Consider `CCCc1nn(C)c2c(=O)[nH]c(-c3cc(S(=O)(=O)N4CCN(C)CC4)ccc3OCC)nc12` [sildenafil], for which, in the test on HFpEF patients [2], the trial outcome is on record as “failure”.
Consider `C[C@H]([C@H](C(=O)Nc1cc([C@@H](CC(=O)O)C2CC2)ccc1Cl)c1ccc(Cl)cc1)C(F)(F)F` [runcaciguat], for which the “concentration at which pVASP response peaked” value at apo-sGC (setting [4]) turned out to be 1 μM. The “concentration of maximum effect, pVASP concentration response curve” value on apo-sGC (without IBMX (FIG. 14B)) is given as 100 μM.
For the compound `COC(=O)Nc1c(N)nc(-c2nn(Cc3ccccc3F)c3ncc(F)cc23)nc1N` [vericiguat, methyl N-[4,6-diamino-2-[5-fluoro-1-[(2-fluorophenyl)methyl]pyrazolo[3,4-b]pyridin-3-yl]pyrimidin-5-yl]carbamate], the trial outcome in the test with HFpEF patients [3] was “failed”.
As to `COC(=O)N(C)c1c(N)nc(-c2nn(Cc3ccccc3F)c3ncccc23)nc1N` [riociguat, Methyl N-[4,6-Diamino-2-[1-[(2-fluorophenyl)methyl]-1H-pyrazolo[3,4-b]pyridin-3-yl]-5-pyrimidinyl]-N-methyl-carbaminate], at sGC (setting [4]), the “concentration at which pVASP response peaked” value came to 100 μM. In addition, the “concentration of maximum effect, pVASP concentration response curve” value on sGC (without IBMX (FIG. 14B)) is recorded as > 100 μM.

The values above are taken from US20250281485A1, “DIAGNOSIS AND/OR TREATMENT OF HEART FAILURE WITH PRESERVED EJECTION FRACTION” (UNIVERSITEIT MAASTRICHT, priority 2022, published 2025).
